The values that follow come from ChEMBL document CHEMBL2151036, “Chemocentric informatics approach to drug discovery: identification and experimental validation of selective estrogen receptor modulators as ligands of 5-hydroxytryptamine-6 receptors and as potential cognition enhancers” (J Med Chem, 2012).

The first assay deals with 5-hydroxytryptamine receptor 6 (Homo sapiens, UniProt P50406). The assay can be described thus: Displacement of [3H]LSD from human 5HT6 receptor expressed in HEK293 cells after 1.5 hrs by liquid scintillation counting.
Chain of 5-hydroxytryptamine receptor 6 (P50406 whole entry): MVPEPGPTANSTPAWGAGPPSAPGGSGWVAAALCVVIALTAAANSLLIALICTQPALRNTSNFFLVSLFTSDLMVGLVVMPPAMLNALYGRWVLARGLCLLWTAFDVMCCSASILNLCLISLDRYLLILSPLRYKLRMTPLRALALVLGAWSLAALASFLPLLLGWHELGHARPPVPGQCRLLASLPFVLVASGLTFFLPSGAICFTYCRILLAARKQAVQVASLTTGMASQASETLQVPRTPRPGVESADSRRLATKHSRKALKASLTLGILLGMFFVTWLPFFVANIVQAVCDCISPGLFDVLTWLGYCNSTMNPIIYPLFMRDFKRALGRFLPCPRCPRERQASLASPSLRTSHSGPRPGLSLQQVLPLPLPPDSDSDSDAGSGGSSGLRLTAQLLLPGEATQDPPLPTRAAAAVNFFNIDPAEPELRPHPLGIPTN
Settings: not given; call rule not given here
Background: In a radioligand displacement assay an active substance lowers the binding of a labelled ligand.
Usually Ki stands for the dissociation constant of the complex between target and ligand, obtained from inhibition or displacement. Low values mean tighter binding, high ones weaker binding. In turn, `O=C1NCN(c2ccccc2)C12CCN(CCCC(c1ccc(F)cc1)c1ccc(F)cc1)CC2` gave a Ki of 1190 nM. `CCN(CC)CCOc1ccc(C(=C(Cl)c2ccccc2)c2ccccc2)cc1` [CLOMIPHENE] showed a Ki of 1960 nM. Compound `CN(C)CCCN1c2ccccc2CCc2ccc(Cl)cc21` [CLOMIPRAMINE] gave a Ki of 112 nM. As for `CNCCC=C1c2ccccc2CCc2ccccc21` [NORTRIPTYLINE], the inhibition constant Ki is 214 nM. In the case of `O=C(c1ccc(OCCN2CCCCC2)cc1)c1c(-c2ccc(O)cc2)sc2cc(O)ccc12` [RALOXIFENE], the inhibition constant Ki is 750 nM. `CC/C(=C(\c1ccccc1)c1ccc(OCCN(C)C)cc1)c1ccccc1` [TAMOXIFEN]: the affinity, expressed as Ki, was 1040 nM. Same read-out and setting: to `CN(C)CCOc1ccc(/C(=C(/CCCl)c2ccccc2)c2ccccc2)cc1` [TOREMIFENE] belongs 4120 nM.

For `OCCN1CCN(CC/C=C2/c3ccccc3Sc3ccc(Cl)cc32)CC1` [ZUCLOPENTHIXOL], the Ki was found to be 169 nM.

Still in this assay, the particulars now being: hek293.
Turning to `COc1ccccc1N1CCN(CCCCNC(=O)c2ccc3ccccc3c2)CC1` [BP-897], the inhibition constant Ki entry was “Not Active”. With `CC(NCCC(c1ccccc1)c1ccccc1)c1ccccc1` (stereo unspecified) [FENDILINE], the inhibitory constant (Ki) result is “Not Active”. On to `O=c1cc(N2CCOCC2)oc2c(-c3ccccc3)cccc12` [LY-294002], for which the Ki entry is listed as “Not Active”.
